Measurements as given in patent US9884851B2, “Heterocycle-bisamide inhibitors of scavenger receptor BI” (THE BROAD INSTITUTE, INC., priority 2012, dated 2018).
In brackets after ≈: the same amount, converted by molar mass. Where two headings read alike, the source gives them in different places. One block for each compound: values may come before it.

Columns and labels:
ldlA[mSR-BI] cells = test: Cell cytotoxicity assay (CellTiter-Glo)
Experimental: It is possible that a compound will cause cells to decrease HDL-mediated DiI uptake due to nonspecific consequences of cellular toxicity, representing a second class of false positive hits. The cells were treated with compounds for 3 hours or 24 hours, and then cell viability was measured using the CellTiter-Glo Assay (Promega), a luciferase-based reagent that measures cellular ATP levels. The compounds were tested at different concentrations to determine IC50 values. […] Data were normalized against DMSO and the positive control (1 μM BLT-1) in Genedata Assay Analyzer.
All available dry powder samples of the remaining, non-quenching compounds were procured from commercial sources and purities were determined. The compounds obtained were then retested in the primary assay and in cytotoxicity assays. We wanted to rule out any compounds that were cytotoxic, especially in the 3-hour time span of the primary DiI-HDL uptake assay. Therefore, compounds were tested in ldl[mSR-BI] cells for cytotoxicity at 3 hours and 24 hours using the CellTiter-Glo assay (Promega) that measures cellular ATP as a marker of cell viability. […] Compounds were screened for inhibition of endocytosis using labeled transferrin, which is known to bind the transferrin receptor, enter cells by clathrin-mediated endocytosis, and move to endosomes before being recycled to the cell surface.

SR-BI [1] = biological target: T1, SR-BI (Mus musculus, UniProt Q61009); test: HDL binding assay (Alexa 488 HDL); assay type: cell-based, murine; design: expressed in transfected cells; host or cells: ldlA[mSR-BI], Chinese hamster ovary (CHO) cells lacking LDL receptor (Krieger Laboratory); details: Alexa Fluor 488-labeled HDL
T1 sequence (Q61009 1-509): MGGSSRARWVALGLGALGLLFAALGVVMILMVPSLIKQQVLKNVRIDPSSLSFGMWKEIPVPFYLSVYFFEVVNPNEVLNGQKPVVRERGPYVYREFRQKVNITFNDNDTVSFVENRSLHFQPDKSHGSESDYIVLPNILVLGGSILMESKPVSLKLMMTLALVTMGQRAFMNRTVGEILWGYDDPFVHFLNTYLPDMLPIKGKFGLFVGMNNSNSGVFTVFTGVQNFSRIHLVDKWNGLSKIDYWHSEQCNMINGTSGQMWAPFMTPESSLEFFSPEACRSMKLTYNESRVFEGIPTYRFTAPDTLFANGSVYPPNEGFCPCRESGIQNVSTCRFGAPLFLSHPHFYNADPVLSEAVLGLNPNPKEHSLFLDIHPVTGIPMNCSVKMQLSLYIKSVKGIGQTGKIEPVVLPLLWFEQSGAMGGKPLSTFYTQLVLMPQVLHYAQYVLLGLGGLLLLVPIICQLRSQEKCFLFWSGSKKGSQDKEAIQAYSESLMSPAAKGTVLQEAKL
Experimental: HDL binding was assessed using Alexa Fluor 488-labeled HDL particles. For this assay, the Alexa 488 dye was directly covalently bound to apolipoprotein components of the HDL particle via primary amines; thus, no transfer of the fluorophore to cell membranes occurs. Instead, direct binding of the HDL particles to SR-BI can be measured. As a positive control, BLT-1, which is known to increase binding, was used at 1 μM. It is possible that a compound can reduce binding of HDL to the receptor, and this would lead to a decrease in signal. This assay is used to characterize the mechanism of action of a particular compound; therefore, any outcome in the assay is acceptable. Data were normalized against DMSO and the positive control (1 μM BLT-1) in Genedata Assay Analyzer.

[2] = tested on: endocytosis of transferrin; test: Transferrin endocytosis assay; assay type: cell-based, Chinese hamster; details: concentrations up to 35 μM
Source text: Transferrin Endocytosis Assay (SA 3: AID No. 602134)
This assay measures the endocytosis of an independent ligand, transferrin, which is not taken up via SR-BI but by clathrin-mediated endocytosis; thus providing a measure of the selectivity of the inhibitors. Alexa-594-labeled transferrin is taken into the cell via endocytosis and localization of labeled transferrin can be quantitated in the various intracellular compartments. […] Inhibitors of interest should act selectively at SR-BI and should have no activity in this assay.
Cells were pre-treated with compound for 3 hours and then treated with the Alexa-594 transferrin reagent for 30 minutes (Catalog No. T-13343; Invitrogen) in serum-free media. Plates of cells were then placed onto ice, washed with ice cold PBS, and then fixed with 4% paraformaldehyde. In addition, the nuclei were stained with 300 nM 4′,6-diamidino-2-phenylindole (DAPI) (Catalog No. 21490; Invitrogen). The cells were imaged with the Molecular Devices IXM microscope. Translocation measurements were performed using MetaExpress software and normalized for cell number.

Solubility in PBS = assay type: physicochemical; details: PBS pH 7.4, 23° C., 1% DMSO
Experimental: We noticed that the concentration of the probe fluctuated through the course of the assay (data not shown). We believe that this fluctuation is due to the low kinetic solubility of the probe. Thus, we decided to determine the amount of undissolved probe present in the well after it was treated with PBS for a given length of time, relative to the amount of undissolved probe at the start of the assay. The wells were centrifuged and the supernatant was removed after various time points, then acetonitrile was added to dissolve the remaining solid in the wells, and the amount of probe was quantified. […] The stability of the probe was confirmed by measuring stability in human plasma, with >99% remaining after a 5-hour incubation period. […] FIG. 5 summarizes known properties of the probe.

murine SR-BI, isoform 1 = biological target: T2, murine SR-BI, isoform 1 (Mus musculus, UniProt Q61009); test: DiI-HDL uptake assay (primary assay); assay type: cell-based; details: ldlA[mSR-BI] cells, 3 hours with compound
T2 construct: expressed in transfected cells; host or cells: ldlA[mSR-BI], Chinese hamster ovary (CHO) cells lacking LDL receptor (Krieger Laboratory)
T2 sequence (Q61009 1-509): T1 sequence (Q61009 1-509)
Experimental: The following cell lines were used in this study: • ldlA[mSR-BI] is a Chinese hamster ovary (CHO) cell line that overexpresses murine SR-BI, isoform 1 (NP_058021) and was obtained from the (Krieger Laboratory). This cell line was used for the primary assay and several secondary assays. […] Assays DiI-HDL Uptake Assay (Primary Assay AID Nos. 488896, 493194, 540354 588392, 588553, 588548, 588754, 588828, 588833)
ldlA[mSR-BI] cells were plated into 384-well plates at 30 μl per well and incubated overnight. As a measurable surrogate for cholesterol uptake, human HDL particles were treated with the lipophilic fluorescent dye DiI and exposed to ldlA[mSR-BI] cells in lipoprotein-free media (Ham's F12/0.5% fatty acid-free Bovine Serum Albumin (BSA)/25 mM HEPES pH 7.4 plus 10 μg protein/ml DiI-HDL). Cells took up the DiI via SR-BI over 3 hours in the presence of compound. After significant uptake of the DiI, the cells became fluorescent. The level of fluorescence correlates with the amount of DiI uptake and can be measured with a standard plate reader (here a PerkinElmer EnVision plate reader was used). The uptake of lipid (represented by DiI) was inhibited by the positive control compound BLT-1 or with an excess of HDL untreated with DiI. Primary HTS data were analyzed in Genedata Screener Assay Analyzer, and were normalized against DMSO and the positive control (1 μM BLT-1). For the HTS, the average of two replicates was used to rank order activity and to choose compounds for retests. For dose studies, percent (%) activity was determined for each concentration and the concentration response curves (CRCs) were generated with Genedata Condeseo.
To identify novel inhibitors, SR-BI-mediated lipid uptake was measured in an engineered cell line that minimized potential uptake by other mechanisms, including via the LDL receptor (1). ldlA[mSR-BI] cells overexpress murine isoform 1 and selectively take up HDL lipid at similar levels as “has been reported for cultured mouse adrenal cells, perfused organs, and liver, adrenal gland and ovary in vivo” (1). This primary cell-based assay was used in a pilot screen that identified BLTs 1 through 5. The assay was slightly modified from the original protocol of Nieland et al. to increase throughput and to ease automation procedures.
Briefly, the plate reader was switched to a Perkin-Elmer EnVision, several washing steps were eliminated, and the cell number per well was reduced without impacting the robustness of the assay. The automated assay was first tested with a validation set of 2,240 compounds. These compounds were tested in duplicate with in-plate neutral (DMSO) and positive (1 μM BLT-1) controls. Robustness, reproducibility, and variability parameters were analyzed before initiating the full HTS. The HTS was run over the course of several weeks. Data were normalized relative to controls, and plate patterns were corrected using a multiplicative algorithm in Genedata Screener Assay Analyzer. For each compound, the average of the two replicates was determined and used for subsequent analysis.

hepatitis C virus (HCV) = test: In vitro testing with Huh-7.5 cells infected with HCV; assay type: cell-based; details: for inhibition of HCV replication (in words): Huh-7.5 cells infected with Jcl 378-1 TagRFP (MOI=0.1), 3 dpi
Experimental: A series of tests were conducted using the compound of Formula II (CID53393835/ML279), other known inhibitors of SR-BI and controls with cells infected with hepatitis C virus (HCV). The cells (Huh-7.5 cells infected with Jcl 378-1 TagRFP (MOI=0.1) 3 dpi) were treated with the following SR-BI compounds and controls:
Three different infection protocols were followed: (1) no wash—virus inoculum was removed 4hpi and fresh medium containing compounds added without washing cells; (2) 5× wash—virus inoculum was removed 4hpi, cells were washed 5× with PBS and fresh medium containing compounds added; and (3) no wash Opt—infection were performed in serum-free OptiMem; virus inoculum was removed 4hpi and fresh medium containing compounds added without washing cells. FIG. 90 provides a comparison of the three different infection set-ups. FIG. 91 provides a comparison of two independent experiments.

HCVcc and HCVpp = details: primary human hepatocytes and/or human hepatoma cell lines; cited from earlier work
SR-BI [3] = biological target: T1, SR-BI; details: cited from earlier work
[4] = hamsters; cited from earlier work
[5] = mice; cited from earlier work

Compound: COc1ccc(-c2nnn(CC(=O)N(C3CCCCC3)C(C)C(=O)NC3CCCC3)n2)cc1OC (centres unmarked) [MLS000888573, reference compound]
IC50 (ldlA[mSR-BI] cells; read-out: 3 h CellTiter-Glo IC50, 3 hours treatment): > 35000 nM
IC50 (ldlA[mSR-BI] cells; read-out: 24 h CellTiter-Glo cytotoxicity IC50, 24 hours treatment): > 35000 nM
AC50 (SR-BI [1]): 600 nM
endocytosis of transferrin (in words) [2]: not grossly perturbing cellular membrane trafficking pathways
solubility (Solubility in PBS): 114 µM (≈ 55.2 µg/mL)
IC50 (murine SR-BI, isoform 1): 51 nM
IC50 (murine SR-BI, isoform 1; listed as hit compound): 58 nM

IC50 (murine SR-BI, isoform 1): 0.93 nM
Compound: COCC(=O)N1CCc2cc(-c3csc(NC(=O)c4cc(OC)cc(OC)c4)n3)ccc21 [ML278, reference compound]

Compound: COc1c(NC(=O)C(=O)c2ccc(OCCN3CCOCC3)c3ccccc23)cc(C(C)(C)C)cc1NS(C)(=O)=O [ITX-5061]
inhibition of HCV replication (in words) (hepatitis C virus (HCV); listed as 9): able to inhibit HCV replication
inhibition of HCV replication (in words) (hepatitis C virus (HCV); listed as SRB1-9): inhibited viral replication
mean fluorescence intensity (MFI) of HCV positive cells (in words) (hepatitis C virus (HCV); dose dependence): this increase was not seen
HCVcc and HCVpp infection (in words) (HCVcc and HCVpp): inhibit HCVcc and HCVpp infection
IC50 (murine SR-BI, isoform 1): 254 nM

Compound: COc1ccc(Cl)cc1C(=O)NCCc1ccc(S(=O)(=O)NC(=O)NC2CCCCC2)cc1 [glyburide]
cholesterol efflux inhibition (in words) (SR-BI [3]): relatively weak inhibitor of cholesterol efflux

IC50 (murine SR-BI, isoform 1): 1600 nM
Compound: C[C@@H](C(=O)NC1CCCC1)N(C(=O)Cn1nnc(-c2ccc3c(c2)OCO3)n1)C1CCCCC1 [(S)-isomer]

Compound: CC(C)(C)OC(=O)N1CCN(c2ccc(NC(=O)c3cc([N+](=O)[O-])ccc3Cl)cc2)CC1 [R-138329]
HDL-cholesterol (in words) [4]: increased HDL-cholesterol
HDL-cholesterol (in words) [5]: increased HDL-cholesterol
